Where a name gives a salt, the structure may show the parent alone.
Columns and labels:
[1] = target: T1, JAK1 (Homo sapiens, UniProt P23458); experiment: JAK1 enzyme inhibition test (LANCE method); format: biochemical; conditions: test compound 1 μM; for inhibition at 1 µM: read-out: Inhibitory rate (%) JAK1 1 μM
T1 construct: purchased Invitrogen
Method in brief: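 TR-FRET (LANCE) kinase assay using JAK1 at 187.5 ng/mL, ULight-JAK1 peptide at 300 nM and ATP at 150 μM, given as solution concentrations before mixing. Buffer was 50 mM HEPES pH 7.5 with 10 mM MgCl2 and 2 mM DTT, and the reaction ran 1 h at room temperature. Eu anti-phosphotyrosine signal at 665 nm was expressed relative to a no-enzyme well, taken as 100% inhibition.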

[2] = target: T2, Tyk2 (Homo sapiens, UniProt P29597); experiment: Tyk2 enzyme inhibition test (LANCE method); format: biochemical; conditions: test compound 1 μM; for inhibition at 1 µM: read-out: Inhibitory rate (%) Tyk2 1 μM
T2 construct: purchased Invitrogen
T2 sequence (P29597 whole entry): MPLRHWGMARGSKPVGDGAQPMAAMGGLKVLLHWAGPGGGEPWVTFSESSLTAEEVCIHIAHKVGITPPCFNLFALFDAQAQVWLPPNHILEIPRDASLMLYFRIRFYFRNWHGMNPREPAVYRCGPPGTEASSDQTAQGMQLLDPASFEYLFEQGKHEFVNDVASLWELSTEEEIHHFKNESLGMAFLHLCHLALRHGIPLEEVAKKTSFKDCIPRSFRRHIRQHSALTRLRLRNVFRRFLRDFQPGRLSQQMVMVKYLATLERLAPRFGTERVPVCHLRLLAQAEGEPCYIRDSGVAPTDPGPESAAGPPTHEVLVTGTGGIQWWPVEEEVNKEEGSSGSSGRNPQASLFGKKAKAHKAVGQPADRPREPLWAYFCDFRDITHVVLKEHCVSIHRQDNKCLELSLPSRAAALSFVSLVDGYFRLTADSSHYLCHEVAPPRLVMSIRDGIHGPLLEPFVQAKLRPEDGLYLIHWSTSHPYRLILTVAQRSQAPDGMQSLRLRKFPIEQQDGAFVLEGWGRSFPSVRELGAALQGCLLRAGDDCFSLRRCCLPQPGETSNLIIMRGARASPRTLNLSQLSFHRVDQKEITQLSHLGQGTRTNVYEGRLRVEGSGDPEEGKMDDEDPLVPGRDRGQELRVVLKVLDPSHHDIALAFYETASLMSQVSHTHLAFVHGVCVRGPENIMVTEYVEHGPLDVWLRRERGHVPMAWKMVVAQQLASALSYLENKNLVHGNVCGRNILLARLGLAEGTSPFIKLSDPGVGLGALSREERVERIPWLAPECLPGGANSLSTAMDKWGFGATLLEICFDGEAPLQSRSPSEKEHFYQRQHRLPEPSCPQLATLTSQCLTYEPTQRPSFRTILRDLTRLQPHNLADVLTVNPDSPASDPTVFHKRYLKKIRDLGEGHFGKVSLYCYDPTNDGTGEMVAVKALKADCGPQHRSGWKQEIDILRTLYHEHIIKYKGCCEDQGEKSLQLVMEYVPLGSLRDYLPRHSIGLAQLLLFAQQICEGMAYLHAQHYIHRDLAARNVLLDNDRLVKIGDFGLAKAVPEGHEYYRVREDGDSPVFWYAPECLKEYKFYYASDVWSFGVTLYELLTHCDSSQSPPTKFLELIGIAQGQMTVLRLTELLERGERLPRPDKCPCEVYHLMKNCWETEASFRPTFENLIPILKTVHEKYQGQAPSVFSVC
Method in brief: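 Recombinant Tyk2 (375 ng/mL stock) with ULight-JAK1 peptide (300 nM stock) and ATP (30 μM stock) in HEPES pH 7.5/MgCl2/EGTA/DTT buffer, 1 h at room temperature. Stopped with EDTA plus Eu-anti-phosphotyrosine antibody; TR-FRET read at 665 nm after 1 h. No-enzyme wells define 100% inhibition.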

T1 sequence (P23458 whole entry): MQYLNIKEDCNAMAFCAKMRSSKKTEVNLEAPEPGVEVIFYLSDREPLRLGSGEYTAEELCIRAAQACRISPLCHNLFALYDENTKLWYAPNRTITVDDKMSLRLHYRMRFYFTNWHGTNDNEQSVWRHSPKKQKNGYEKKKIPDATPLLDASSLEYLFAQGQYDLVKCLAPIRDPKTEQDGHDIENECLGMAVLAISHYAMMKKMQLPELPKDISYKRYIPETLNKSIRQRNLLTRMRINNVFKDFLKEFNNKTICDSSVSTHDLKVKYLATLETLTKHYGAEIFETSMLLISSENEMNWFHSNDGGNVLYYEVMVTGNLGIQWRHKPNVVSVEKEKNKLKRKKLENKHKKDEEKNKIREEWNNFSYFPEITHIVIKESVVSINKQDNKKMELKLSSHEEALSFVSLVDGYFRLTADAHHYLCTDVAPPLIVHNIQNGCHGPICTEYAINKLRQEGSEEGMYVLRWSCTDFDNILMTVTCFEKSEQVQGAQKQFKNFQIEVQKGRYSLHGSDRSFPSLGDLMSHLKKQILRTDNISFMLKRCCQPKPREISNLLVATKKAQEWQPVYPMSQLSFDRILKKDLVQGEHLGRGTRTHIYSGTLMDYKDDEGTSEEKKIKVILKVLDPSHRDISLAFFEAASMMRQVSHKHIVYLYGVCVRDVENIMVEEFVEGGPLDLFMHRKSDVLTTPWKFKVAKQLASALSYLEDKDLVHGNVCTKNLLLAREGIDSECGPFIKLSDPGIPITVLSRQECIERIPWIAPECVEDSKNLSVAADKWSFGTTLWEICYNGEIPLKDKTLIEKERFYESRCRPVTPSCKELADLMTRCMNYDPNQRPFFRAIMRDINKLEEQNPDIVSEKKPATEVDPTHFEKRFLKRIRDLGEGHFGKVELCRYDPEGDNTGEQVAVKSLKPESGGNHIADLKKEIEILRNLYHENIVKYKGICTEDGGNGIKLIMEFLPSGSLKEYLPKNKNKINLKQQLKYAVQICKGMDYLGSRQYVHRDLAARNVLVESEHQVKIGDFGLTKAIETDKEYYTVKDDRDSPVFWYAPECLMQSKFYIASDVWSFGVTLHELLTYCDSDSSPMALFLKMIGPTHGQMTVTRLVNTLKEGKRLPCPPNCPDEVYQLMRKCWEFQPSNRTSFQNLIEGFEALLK

inhibition at 1 µM [1] [%]	inhibition at 1 µM [2] [%]	Inhibitory rate (%) JAK1 1 μM [1] [%]	Inhibitory rate (%) Tyk2 1 μM [2] [%]	SMILES
94	99	–	–	N#Cc1c[nH]c(=O)c2c1c(C1CCCC1)cn2-c1csc(C(N)=O)c1 [Example 118, 4-(4-cyano-3-cyclopentyl-7-oxo-6,7-dihydro-1H-pyrrolo[2,3-c]pyridin-1-yl)thiophene-2-carboxamide]
100	99	–	–	NS(=O)(=O)c1ccc(-c2nn(C3CCC(O)CC3)c3cc[nH]c(=O)c23)cc1 (centres unmarked) [Example 119, 4-(1-(4-hydroxycyclohexyl)-4-oxo-4,5-dihydro-1H-pyrazolo[4,3-c]pyridin-3-yl)benzenesulfonamide]
88	98	–	–	N#Cc1c[nH]c(=O)c2c(-c3ccc(OCC(N)=O)cc3)cn(C3CCCC3)c12 [Example 120, 2-(4-(7-cyano-1-cyclopentyl-4-oxo-4,5-dihydro-1H-pyrrolo[3,2-c]pyridin-3-yl)phenoxy)acetamide]
87	97	–	–	N#CCOc1ccc(-c2cn(C3CCCC3)c3c(C#N)c[nH]c(=O)c23)cc1 [Example 121, 3-(4-(cyanomethoxy)phenyl)-1-cyclopentyl-4-oxo-4,5-dihydro-1H-pyrrolo[3,2-c]pyridine-7-carbonitrile]
99	100	–	–	CCNC(=O)c1cc(-c2cn(C3CCCC3)c3c(C#N)c[nH]c(=O)c23)cs1 [Example 122, 4-(7-cyano-1-cyclopentyl-4-oxo-4,5-dihydro-1H-pyrrolo[3,2-c]pyridin-3-yl)-N-ethylthiophene-2-carboxamide]
99	99	–	–	CC(C)(C)NC(=O)c1cc(-c2cn(C3CCCC3)c3c(C#N)c[nH]c(=O)c23)cs1 [Example 123, N-tert-butyl-4-(7-cyano-1-cyclopentyl-4-oxo-4,5-dihydro-1H-pyrrolo[3,2-c]pyridin-3-yl)thiophene-2-carboxamide]
89	98	–	–	NC(=O)Cc1ccc(-c2nn(-c3c(F)cccc3F)c3c(Cl)c[nH]c(=O)c23)cc1 [Example 124, 2-(4-(7-chloro-1-(2,6-difluorophenyl)-4-oxo-4,5-dihydro-1H-pyrazolo[4,3-c]pyridin-3-yl)phenyl)acetamide]
80	96	–	–	N#Cc1c[nH]c(=O)c2c(-c3ccn[nH]3)cn(C3CCCC3)c12 [Example 125, 1-cyclopentyl-4-oxo-3-(1H-pyrazol-5-yl)-4,5-dihydro-1H-pyrrolo[3,2-c]pyridine-7-carbonitrile hydrochloride]
–	–	99	98	NS(=O)(=O)c1ccc(-c2nn(C3CCC(O)CC3)c3cc[nH]c(=O)c23)cc1 (centres unmarked) [Example 126, 4-(1-(4-hydroxycyclohexyl)-4-oxo-4,5-dihydro-1H-pyrazolo[4,3-c]pyridin-3-yl)benzenesulfonamide]
99	97	–	–	N#CCc1ccc(-c2nn(C3CCCC3)c3cc[nH]c(=O)c23)cc1 [Example 127, (4-(1-cyclopentyl-4-oxo-4,5-dihydro-1H-pyrazolo[4,3-c]pyridin-3-yl)phenyl)acetonitrile]
93	93	–	–	N#CCc1cccc(-c2nn(C3CCCC3)c3cc[nH]c(=O)c23)c1 [Example 128, (3-(1-cyclopentyl-4-oxo-4,5-dihydro-1H-pyrazolo[4,3-c]pyridin-3-yl)phenyl)acetonitrile]
98	97	–	–	CC(C)(C)n1nc(-c2csc(C(N)=O)c2)c2c(=O)[nH]ccc21 [Example 129, 4-(1-tert-butyl-4-oxo-4,5-dihydro-1H-pyrazolo[4,3-c]pyridin-3-yl)thiophene-2-carboxamide]
76	96	–	–	CC(=O)Nc1cccc(-c2cn(C3CCCC3)c3c(C#N)c[nH]c(=O)c23)c1 [Example 130, N-(3-(7-cyano-1-cyclopentyl-4-oxo-4,5-dihydro-1H-pyrrolo[3,2-c]pyridin-3-yl)phenyl)acetamide]
97	99	–	–	Cn1cc(-c2cn(C3CCCC3)c3c(C#N)c[nH]c(=O)c23)cn1 [Example 131, 1-cyclopentyl-3-(1-methyl-1H-pyrazol-4-yl)-4-oxo-4,5-dihydro-1H-pyrrolo[3,2-c]pyridine-7-carbonitrile]
27	74	–	–	N#Cc1c[nH]c(=O)c2c(-c3ccccn3)cn(C3CCCC3)c12 [Example 132, 1-cyclopentyl-4-oxo-3-(pyridin-2-yl)-4,5-dihydro-1H-pyrrolo[3,2-c]pyridine-7-carbonitrile]
47	90	–	–	N#Cc1c[nH]c(=O)c2c(-c3cccnc3)cn(C3CCCC3)c12 [Example 133, 1-cyclopentyl-4-oxo-3-(pyridin-3-yl)-4,5-dihydro-1H-pyrrolo[3,2-c]pyridine-7-carbonitrile]

inhibition at 1 µM [1] [%]	inhibition at 1 µM [2] [%]	Inhibitory rate (%) JAK1 1 μM [1] [%]	Inhibitory rate (%) Tyk2 1 μM [2] [%]	SMILES
78	97	–	–	N#Cc1c[nH]c(=O)c2c(-c3cccs3)cn(C3CCCC3)c12 [Example 134, 1-cyclopentyl-4-oxo-3-(2-thienyl)-4,5-dihydro-1H-pyrrolo[3,2-c]pyridine-7-carbonitrile]
56	97	–	–	CC(C)Cn1cc(-c2cn(C3CCCC3)c3c(C#N)c[nH]c(=O)c23)cn1 [Example 135, 1-cyclopentyl-3-(1-isobutyl-1H-pyrazol-4-yl)-4-oxo-4,5-dihydro-1H-pyrrolo[3,2-c]pyridine-7-carbonitrile]
59	93	–	–	Cn1ccc(-c2cn(C3CCCC3)c3c(C#N)c[nH]c(=O)c23)n1 [Example 136, 1-cyclopentyl-3-(1-methyl-1H-pyrazol-3-yl)-4-oxo-4,5-dihydro-1H-pyrrolo[3,2-c]pyridine-7-carbonitrile]
77	98	–	–	N#Cc1c[nH]c(=O)c2c(-c3cnn(C4CCCC4)c3)cn(C3CCCC3)c12 [Example 137, 1-cyclopentyl-3-(1-cyclopentyl-1H-pyrazol-4-yl)-4-oxo-4,5-dihydro-1H-pyrrolo[3,2-c]pyridine-7-carbonitrile]
94	99	–	–	N#Cc1c[nH]c(=O)c2c(-c3cnn(C4CC4)c3)cn(C3CCCC3)c12 [Example 138, 1-cyclopentyl-3-(1-cyclopropyl-1H-pyrazol-4-yl)-4-oxo-4,5-dihydro-1H-pyrrolo[3,2-c]pyridine-7-carbonitrile]
96	98	–	–	CC(C)(C#N)c1ccc(-c2cn(C3CCCC3)c3c(C#N)c[nH]c(=O)c23)cc1 [Example 139, 3-(4-(2-cyanopropan-2-yl)phenyl)-1-cyclopentyl-4-oxo-4,5-dihydro-1H-pyrrolo[3,2-c]pyridine-7-carbonitrile]
17	91	–	–	N#Cc1c[nH]c(=O)c2c(-c3cccc(N4CCOCC4)c3)cn(C3CCCC3)c12 [Example 140, 1-cyclopentyl-3-(3-(morpholin-4-yl)phenyl)-4-oxo-4,5-dihydro-1H-pyrrolo[3,2-c]pyridine-7-carbonitrile]
99	92	–	–	CC1(Cn2nc(-c3csc(C(N)=O)c3)c3c(=O)[nH]ccc32)COC1 [Example 141, 4-(1-((3-methyloxetan-3-yl)methyl)-4-oxo-4,5-dihydro-1H-pyrazolo[4,3-c]pyridin-3-yl)thiophene-2-carboxamide]
96	97	–	–	NC(=O)c1ccc(-c2nn(C3CCCC3)c3cc[nH]c(=O)c23)cc1 [Example 142, 4-(1-cyclopentyl-4-oxo-4,5-dihydro-1H-pyrazolo[4,3-c]pyridin-3-yl)benzamide]
93	92	–	–	NC(=O)c1cccc(-c2nn(C3CCCC3)c3cc[nH]c(=O)c23)c1 [Example 143, 3-(1-cyclopentyl-4-oxo-4,5-dihydro-1H-pyrazolo[4,3-c]pyridin-3-yl)benzamide]
99	95	–	–	NC(=O)c1cc(-c2nn(-c3c(F)cccc3F)c3c(Br)c[nH]c(=O)c23)cs1 [Example 144, 4-(7-bromo-1-(2,6-difluorophenyl)-4-oxo-4,5-dihydro-1H-pyrazolo[4,3-c]pyridin-3-yl)thiophene-2-carboxamide]
99	100	–	–	CNC(=O)c1cc(-c2nn(-c3c(F)cccc3F)c3c(Br)c[nH]c(=O)c23)cs1 [Example 145, 4-(7-bromo-1-(2,6-difluorophenyl)-4-oxo-4,5-dihydro-1H-pyrazolo[4,3-c]pyridin-3-yl)-N-methylthiophene-2-carboxamide]
69	98	–	–	N#CCc1cccc(-c2nn(-c3c(F)cccc3F)c3c(Br)c[nH]c(=O)c23)c1 [Example 146, (3-(7-bromo-1-(2,6-difluorophenyl)-4-oxo-4,5-dihydro-1H-pyrazolo[4,3-c]pyridin-3-yl)phenyl)acetonitrile]
74	99	–	–	NC(=O)Cc1cccc(-c2nn(-c3c(F)cccc3F)c3c(Br)c[nH]c(=O)c23)c1 [Example 147, 2-(3-(7-bromo-1-(2,6-difluorophenyl)-4-oxo-4,5-dihydro-1H-pyrazolo[4,3-c]pyridin-3-yl)phenyl)acetamide]
99	98	–	–	NC(=O)c1cc(-c2nn(C3CCC4(CC3)OCCO4)c3cc[nH]c(=O)c23)cs1 [Example 148, 4-(1-(1,4-dioxaspiro[4.5]dec-8-yl)-4-oxo-4,5-dihydro-1H-pyrazolo[4,3-c]pyridin-3-yl)thiophene-2-carboxamide]

Source: patent US9371320B2, “Heterocyclic compound” (TAKEDA PHARMACEUTICAL COMPANY LIMITED, priority 2012, dated 2016)
